This note sets out measurements from patent US10562898B2, “Substituted benzenesulfonamides as inhibitors of alpha-4 beta-7 integrin activity” (EA PHARMA CO., LTD., priority 2016, dated 2020).

In the assay the target is T1, α4β7 integrin (Homo sapiens, UniProt P13612+P26010).
T1 construct: a cell line RPMI-8866, which is known to express α4β7 integrin; endogenous in cells; host or cells: RPMI-8866 (human B cell line)
T1 sequence (P13612 34-1032): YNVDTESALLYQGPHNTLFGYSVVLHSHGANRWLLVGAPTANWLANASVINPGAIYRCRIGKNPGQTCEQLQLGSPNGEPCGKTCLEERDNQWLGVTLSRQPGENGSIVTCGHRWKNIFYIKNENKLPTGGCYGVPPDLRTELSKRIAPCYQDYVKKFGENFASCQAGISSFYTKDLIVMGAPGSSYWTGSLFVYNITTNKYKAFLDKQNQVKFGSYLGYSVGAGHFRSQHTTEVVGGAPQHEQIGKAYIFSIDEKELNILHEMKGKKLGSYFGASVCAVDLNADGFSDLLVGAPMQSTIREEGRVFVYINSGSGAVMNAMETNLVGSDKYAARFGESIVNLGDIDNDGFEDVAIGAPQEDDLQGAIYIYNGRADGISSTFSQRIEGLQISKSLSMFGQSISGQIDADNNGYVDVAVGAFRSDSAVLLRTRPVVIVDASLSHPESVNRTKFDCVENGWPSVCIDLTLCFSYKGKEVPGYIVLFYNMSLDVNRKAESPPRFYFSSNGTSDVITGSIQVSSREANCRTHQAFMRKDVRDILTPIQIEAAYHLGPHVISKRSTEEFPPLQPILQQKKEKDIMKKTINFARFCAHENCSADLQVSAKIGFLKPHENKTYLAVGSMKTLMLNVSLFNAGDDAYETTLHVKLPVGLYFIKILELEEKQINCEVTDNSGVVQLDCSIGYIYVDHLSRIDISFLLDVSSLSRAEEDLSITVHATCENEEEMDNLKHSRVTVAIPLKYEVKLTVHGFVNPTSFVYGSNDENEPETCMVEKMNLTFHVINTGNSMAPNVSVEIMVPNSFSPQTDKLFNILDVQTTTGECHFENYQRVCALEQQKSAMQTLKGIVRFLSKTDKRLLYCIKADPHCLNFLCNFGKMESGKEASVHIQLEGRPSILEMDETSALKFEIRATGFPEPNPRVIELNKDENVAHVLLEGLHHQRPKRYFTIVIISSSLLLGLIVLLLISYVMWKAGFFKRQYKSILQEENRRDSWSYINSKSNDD
T1 sequence (P26010 20-798): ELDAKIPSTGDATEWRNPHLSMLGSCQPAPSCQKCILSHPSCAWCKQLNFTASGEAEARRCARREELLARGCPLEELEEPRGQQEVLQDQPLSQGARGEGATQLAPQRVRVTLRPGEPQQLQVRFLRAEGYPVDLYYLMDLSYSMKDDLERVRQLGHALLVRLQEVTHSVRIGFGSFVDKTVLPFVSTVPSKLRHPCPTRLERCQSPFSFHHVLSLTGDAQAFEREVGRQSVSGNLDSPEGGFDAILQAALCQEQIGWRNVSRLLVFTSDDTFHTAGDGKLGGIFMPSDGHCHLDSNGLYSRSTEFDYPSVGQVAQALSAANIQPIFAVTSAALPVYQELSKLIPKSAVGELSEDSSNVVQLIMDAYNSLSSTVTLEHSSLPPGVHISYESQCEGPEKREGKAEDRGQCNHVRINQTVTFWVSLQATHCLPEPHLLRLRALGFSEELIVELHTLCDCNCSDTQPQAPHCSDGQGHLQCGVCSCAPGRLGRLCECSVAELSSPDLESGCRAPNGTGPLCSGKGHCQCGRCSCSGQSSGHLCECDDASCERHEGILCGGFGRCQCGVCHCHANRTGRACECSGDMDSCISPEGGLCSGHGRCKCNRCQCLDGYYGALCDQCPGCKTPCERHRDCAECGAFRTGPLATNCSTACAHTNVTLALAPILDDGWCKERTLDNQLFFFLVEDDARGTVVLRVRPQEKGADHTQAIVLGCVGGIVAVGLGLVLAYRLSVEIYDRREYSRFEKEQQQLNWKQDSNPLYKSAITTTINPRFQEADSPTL
The experiment in a line: MAdCAM-1/α4β7 integrin binding inhibitory activity evaluation test (RPMI-8866 cells binding to MAdCAM-1/Fc). It counts as cell-based. The settings on record: recombinant mouse MAdCAM-1/Fc, no serum. On the procedure: (2) MAdCAM-1/α4β7 Integrin Binding Inhibitory Activity Evaluation Test
Each test substance was measured in terms of an ability to inhibit the MAdCAM-1 binding of a human B cell line, namely, a cell line RPMI-8866, which is known to express α4β7 integrin.
A solution of recombinant mouse MAdCAM-1/Fc (R&D Systems, Inc.) (0.75 μg/mL) diluted with a buffer A (carbonate buffer, pH 9.6) was added in an amount of 50 μL/well to a 96-well microtiter plate, followed by incubation at 4° C. overnight. After the plate was washed with PBS once, 150 μL/well of Block Ace (Snow Brand Milk Products Co., Ltd.) was added, followed by incubation at room temperature for 2 hours. After removal, the plate was washed with PBS once.
Then, 100 μL of the RPMI-8866 cells (2×10^6 cells/mL) and 100 μL of the test substance at each of various concentrations diluted with a binding buffer (DMEM containing 40 mM HEPES, 0.2% BSA, and 4 mM MnCl2) were added on the plate coated with the MAdCAM-1/Fc (5×10^5 cells/well), followed by incubation at 30° C. for 15 to 60 minutes. After the cells were bound to the wells, the plate was washed with PBS to remove unbound cells. A buffer C (PBS containing 1.5% Triton X-100) in an amount 50 μL/well was added to the plate to lyse the bound RPMI-8866 cells. After 30 μL of a substrate buffer (Promega, CytoTox 96 Non-Radioactive Cytotoxicity Assay) was added to 30 μL of the cell lysate, a reaction was allowed to proceed at room temperature in the dark for 30 minutes. After 30 μL of a stop solution (Promega, CytoTox 96 Non-Radioactive Cytotoxicity Assay) was added to each, and then an absorbance at 490 nm was measured using a plate reader. The absorbance obtained here represents a detection result of an activity of lactate dehydrogenase (LDH) eluted in the supernatant of each well, that is, the absorbance is proportional to the number of RPMI-8866 cells bound to the MAdCAM-1 and thus remaining on the plate. The test was performed in duplicate. Provided that the absorbance of the well containing no test substance was 100%, a cell binding rate with the test substance at each of the various concentrations was figured out, and a concentration IC50 which brought about 50% binding inhibition was calculated.
For the compound `Cc1cn(C)c(=O)n(-c2ccc(C[C@H](NC(=O)c3cc(F)c(NS(=O)(=O)c4c[nH]c5cc(NC(=O)C(C)(C)C)ccc45)cc3F)C(=O)O)cn2)c1=O` [Compound A77], the IC50 (in general, the concentration at which inhibition is half-maximal) came out at 3.6 nM.

On to `Cc1cc(=O)n(-c2ccc(C[C@H](NC(=O)c3cc(F)c(NS(=O)(=O)c4ccc(NC(=O)C(C)(C)C)cc4)cc3F)C(=O)O)cc2)c(=O)n1C` [Compound A46], for which the IC50 worked out at 0.76 nM.

Consider `Cc1c(C)n(C)c(=O)n(-c2ccc(C[C@H](NC(=O)c3cc(F)c(NS(=O)(=O)c4cccc(NC(=O)C(C)(C)C)c4)cc3F)C(=O)O)cn2)c1=O` [Compound A50], for which the IC50 worked out at 6.4 nM.

Turning to `Cn1cc(C(F)(F)F)c(=O)n(-c2ccc(C[C@H](NC(=O)c3cc(F)c(NS(=O)(=O)c4ccc(NC(=O)C(C)(C)C)cc4)cc3F)C(=O)O)cn2)c1=O` [Compound A67], the IC50 turned out to be 1.9 nM.

With `Cn1c(=O)n(-c2ccc(C[C@H](NC(=O)c3cc(F)c(NS(=O)(=O)c4ccc(NC(=O)C5CCNCC5)cc4)cc3F)C(=O)O)cc2)c(=O)c2ccncc21` [Compound A6, (2S)-2-[[2,5-difluoro-4-[[4-(piperidine-4-carbonylamino)phenyl]sulfonylamino]benzoyl]amino]-3-[4-(1-methyl-2,4-dioxo-pyrido[3,4-d]pyrimidin-3-yl)phenyl]propanoic acid], the IC50 was determined as 2.4 nM.

For the compound `Cc1c(C)n(C)c(=O)n(-c2ccc(C[C@H](NC(=O)c3cc(F)c(NS(=O)(=O)c4ccc(NC(=O)C5(c6ccccc6)CC5)cc4)cc3F)C(=O)O)cc2)c1=O` [Compound A30], the IC50 stood at 0.57 nM.

On to `Cc1cn(C)c(=O)n(-c2ccc(C[C@H](NC(=O)c3cc(F)c(NS(=O)(=O)c4ccc(NC(=O)C(C)(C)C)cc4)cc3F)C(=O)O)nc2)c1=O` [Compound A69], for which the IC50 was determined as 1.8 nM.

On to `Cn1ccc(=O)n(-c2ccc(C[C@H](NC(=O)c3cc(F)c(NS(=O)(=O)c4ccc(NC(=O)C(C)(C)C)cc4)cc3F)C(=O)O)cn2)c1=O` [Compound A53], for which the IC50 turned out to be 2 nM.

On to `Cc1c(C)n(C)c(=O)n(-c2ccc(C[C@H](NC(=O)c3cc(F)c(NS(=O)(=O)c4ccc(NC(=O)C(C)(C)C)s4)cc3F)C(=O)O)cc2)c1=O` [Compound A10], for which the IC50 stood at 0.38 nM.

Turning to `Cn1ccc(=O)n(-c2ccc(C[C@H](NC(=O)c3cc(F)c(NS(=O)(=O)c4ccc(NC(=O)C(C)(C)CO)cc4)cc3F)C(=O)O)cn2)c1=O` [Compound A62], the IC50 was 4.9 nM.

In the case of `Cn1ccc(=O)n(-c2ccc(C[C@H](NC(=O)c3cc(F)c(NS(=O)(=O)c4ccc(NC(=O)C5(C(F)(F)F)CC5)cc4)cc3F)C(=O)O)cn2)c1=O` [Compound A55], the IC50 was 2.2 nM.

On to `Cc1c(C)n(C)c(=O)n(-c2ccc(C[C@H](NC(=O)c3cc(F)c(NS(=O)(=O)c4ccc(-n5ccc(C6CCOCC6)cc5=O)cc4)cc3F)C(=O)O)cc2)c1=O` [Compound A34], for which the IC50 amounted to 3.4 nM.

Turning to `Cn1c2c(c(=O)n(-c3ccc(C[C@H](NC(=O)c4cc(F)c(NS(=O)(=O)c5ccc(NC(=O)C(C)(C)C)cc5)cc4F)C(=O)O)cc3)c1=O)COCC2` [Compound A33], the IC50 turned out to be 0.45 nM.

For `Cc1c(C)n(C)c(=O)n(-c2ccc(C[C@H](NC(=O)c3cc(F)c(NS(=O)(=O)c4ccc(N(C)C(=O)C(C)(C)C)cc4)cc3F)C(=O)O)cc2)c1=O` [Compound A35], the IC50 was 9.8 nM.

Turning to `Cn1c(=O)n(-c2ccc(C[C@H](NC(=O)c3cc(F)c(NS(=O)(=O)c4ccc(NC(=O)c5ccncc5)cc4)cc3F)C(=O)O)cc2)c(=O)c2ccncc21` [Compound A7], the IC50 was determined as 0.36 nM.

Consider `Cc1c(C)n(C)c(=O)n(-c2ccc(C[C@H](NC(=O)c3cc(F)c(NS(=O)(=O)c4ccc(NC(=O)C(C)(C)C)cn4)cc3F)C(=O)O)cc2)c1=O` [Compound A19], for which the IC50 came to 0.39 nM.

As for `Cc1c(C)n(C)c(=O)n(-c2ccc(C[C@H](NC(=O)c3cc(F)c(NS(=O)(=O)c4ccc(NC(=O)C5(O)CC5)cc4)cc3F)C(=O)O)cc2)c1=O` [Compound A22], the IC50 worked out at 0.98 nM.

With `Cn1ccc(=O)n(-c2ccc(C[C@H](NC(=O)c3cc(F)c(NS(=O)(=O)c4ccc(NC(=O)C5(C#N)CC5)cc4)cc3F)C(=O)O)cn2)c1=O` [Compound A59], the concentration for half-maximal inhibition (IC50) turned out to be 3.3 nM.

Regarding `Cn1ccc(=O)n(-c2ccc(C[C@H](NC(=O)c3cc(F)c(NS(=O)(=O)c4ccc(NC(=O)C5CCCC5)cc4)cc3F)C(=O)O)cn2)c1=O` [Compound A64], the IC50 was determined as 5.5 nM.

Take `Cn1c(=O)n(-c2ccc(C[C@H](NC(=O)c3cc(F)c(NS(=O)(=O)c4ccc(NC(=O)C5CCOCC5)cc4)cc3F)C(=O)O)cc2)c(=O)c2ccncc21` [Compound A14]: the IC50 was 0.38 nM.

For the compound `Cn1c(=O)n(-c2ccc(C[C@H](NC(=O)c3cc(F)c(NS(=O)(=O)c4ccc(NC(=O)C5(O)CC5)cc4)cc3F)C(=O)O)cc2)c(=O)c2ccncc21` [Compound A23], the IC50 is 1 nM.

Take `Cc1c(C)n(C)c(=O)n(-c2ccc(C[C@H](NC(=O)c3cc(F)c(NS(=O)(=O)c4ccc(NC(=O)C(C)(C)CO)cc4)cc3F)C(=O)O)cc2)c1=O` [Compound A21]: the IC50 was 0.34 nM.

Take `Cc1c(C)n(C)c(=O)n(-c2ccc(C[C@H](NC(=O)c3cc(F)c(NS(=O)(=O)c4ccc(NC(=O)C(C)(C)C)cc4)cc3F)C(=O)O)cc2)c1=O` [Compound A8]: the IC50 came to 0.33 nM.

For the compound `Cn1ccc(=O)n(-c2ccc(C[C@H](NC(=O)c3cc(F)c(NS(=O)(=O)c4ccc(NC(=O)C(C)(C)C)cc4)cc3F)C(=O)O)nc2)c1=O` [Compound A70], the IC50 is 3.4 nM.

With `Cn1cnc2c1c(=O)n(-c1ccc(C[C@H](NC(=O)c3cc(F)c(NS(=O)(=O)c4ccc(NC(=O)C(C)(C)C)cc4)cc3F)C(=O)O)cc1)c(=O)n2C` [Compound A43], the IC50 came out at 0.42 nM.

On to `Cn1c(=O)n(-c2ccc(C[C@H](NC(=O)c3cc(F)c(NS(=O)(=O)c4ccc(NC(=O)C5(C(F)(F)F)CC5)cc4)cc3F)C(=O)O)cc2)c(=O)c2ccncc21` [Compound A24], for which the IC50 was 0.3 nM.
